Source: patent publication US20140221460A1, “METHOD FOR IDENTIFYING MODULATORS OF HCV TRANSLATION OR REPLICATION INVOLVING THE NS5B POLYPEPTIDE AND A PSEUDOKNOT” (priority 2011, published 2014)

Tests used:
[1] = tested on: genotype 2a JFH-1 hepatitis C virus; assay: Virus production / virus replication assay (HCVcc, NS5A immunofocal staining); type: cell-based; conditions: JFH-1 in Huh-7.5 cells, compared to untreated cells, FIG. 9
Procedure: This assay uses the HCVcc system that measures the production of infectious genotype 2a JFH-1 hepatitis C virus as described previously (Wakita et al., 2005). In this assay oligonucleotides directed against RNA sequences or structures are transfected into Huh-7.5 cells and a known amount of virus added 4 hours later. After 24 hours incubation the cell sheet is fixed and virus replication quantified by immunofocal staining for virus antigen (in this instance the NS5A protein). Infected cells are counted using a fluorescence microscope.

[2] = tested on: translation of hepatitis C virus; assay: Translation assay with bicistronic luciferase reporter, co-transfected with oligonucleotides; type: cell-based; conditions: Huh-7.5 cells, added at 1600 nM, normalized to untreated samples
Excerpt: The translation assay uses the bicistronic reporter gene system described in Example 1. In brief, a firefly luciferase reporter gene is under the translational control of the HCV internal ribosome entry site (IRES) as part of the complete 5′ untranslated region of HCV. The luciferase gene is followed by an IRES from an unrelated virus (encephalomyocarditis virus; EMCV) which drives expression of the RNA dependent RNA polymerase (RdRp) of HCV (the NS5B protein) which, in turn, is followed by the HCV 3′ untranslated region (3′ UTR).
All experiments are routinely conducted in human hepatoma cells—Huh-7.5. This is the cell line in which HCV replicates. However, we have also investigated the bicistronic reporter system in HepG2, HeLa and murine cell lines, as well as in cell free translation systems supplemented with Huh-7.5 cell extracts.
The readout of the translation assay is luciferase activity. To control for differences in transfection we co-transfected a separate plasmid encoding renilla luciferase and normalize all firefly results to this.
The translation inhibition assay is typically conducted by co-transfecting RNA generated in vitro from the bicistronic reporter plasmid with oligonucleotides to be tested. Assays for luciferase are routinely conducted four hours post transfection.

[3] = tested on: sub-genomic replicon, genotype 1b (Con1b); assay: Sub-genomic replicon assay (luciferase); type: cell-based, hepatitis C virus; conditions: FIG. 8
Procedure: This assay uses a sub-genomic replicon analogous to that described by Lohmann (Lohmann et al., 1999). As above, we co-transfect an RNA encoding renilla […] luciferase to allow normalization of transfection levels. In these assays we usually transfect the sub-genomic replicon (and renilla) RNA 24 hours before addition of the oligonucleotides.
In this assay we investigated inhibition of luciferase gene activity encoding by the sub-genomic replicon and the influence of prior transfection of oligonucleotides directed against SL9266 or SL9571. The sub-genomic replicon is a genotype 1b sequences (Con1b) and directly complementary oligonucleotides directed against SL9266 (labelled anti SL9266_C) inhibit replication by ˜70% (see FIG. 8).

## 5′-GCACAGCGCAAGTATGTTA-3′ [Randomised LNA oligonucleotide]
[1]
  influence on virus replication, in words: little or no influence
[2]
  inhibition of translation (maximum): ~20%

## 5′-GGGCACGAGACAGGCTGTGAT-3′ [Con1b anti-SL9266 LNA oligonucleotide]
[3]
  inhibition of replication (replicon luciferase activity): ~70%

## 5′-ACGCTGTGAAAAATGTC-3′ [JFH-1 anti-SL9266 LNA oligonucleotide]
[3]
  inhibition of replication (replicon luciferase activity), in words: only partially inhibitory
